Laboratory results from patent US10670605B2, “Cysteine reactive probes and uses thereof” (The Scripps Research Institute, priority 2015, dated 2020).

Columns and labels:
Test in all cases: Competitive isoTOP-ABPP in situ (fragment-treated cells)
Assay type in all cases: cell-based
[1] = biological target: cysteines in MDA-MB-231 and Ramos cells (Homo sapiens, UniProt Q15365); settings: 200 μM, insitu
Method: (§1) Fragments 4 and 11 were screened at 100 μM in situ. […] Site-specific engagement of electrophilic fragments was assessed by blockade of IA-alkyne probe labeling. […] Ratios for unique peptide entries were calculated for each experiment; overlapping peptides with the same modified cysteine (e.g. different charge states, MudPIT chromatographic steps or tryptic termini) were grouped together and the median ratio was reported as the final ratio (R). The peptide ratios reported by CIMAGE were further filtered to ensure the removal or correction of low quality ratios in each individual dataset. […] R values were calculated and individual datasets were filtered as described above (R value calculation and processing).

[2] = biological target: T1, cysteines in MDA-MB-231 and Ramos cells (Homo sapiens, UniProt P42166); settings: 200 μM, insitu
T1 sequence (P42166 1-694): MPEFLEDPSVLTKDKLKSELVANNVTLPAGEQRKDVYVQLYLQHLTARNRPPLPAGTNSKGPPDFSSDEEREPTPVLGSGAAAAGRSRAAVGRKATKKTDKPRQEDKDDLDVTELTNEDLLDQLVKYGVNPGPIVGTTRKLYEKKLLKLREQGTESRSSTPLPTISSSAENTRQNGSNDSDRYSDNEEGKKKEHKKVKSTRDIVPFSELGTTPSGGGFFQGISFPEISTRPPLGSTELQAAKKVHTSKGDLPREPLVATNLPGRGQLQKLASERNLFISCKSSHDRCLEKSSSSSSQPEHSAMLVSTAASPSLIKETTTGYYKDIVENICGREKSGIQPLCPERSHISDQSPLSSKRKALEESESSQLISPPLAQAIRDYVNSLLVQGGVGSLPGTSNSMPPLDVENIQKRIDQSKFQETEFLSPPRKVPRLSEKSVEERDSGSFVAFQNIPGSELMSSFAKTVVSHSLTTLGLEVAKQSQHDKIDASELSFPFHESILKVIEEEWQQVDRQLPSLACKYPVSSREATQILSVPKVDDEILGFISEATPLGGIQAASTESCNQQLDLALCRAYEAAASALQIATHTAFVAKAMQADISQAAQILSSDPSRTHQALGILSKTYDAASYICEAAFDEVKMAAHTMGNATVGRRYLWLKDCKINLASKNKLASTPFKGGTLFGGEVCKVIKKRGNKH
Method: as §1

[3] = biological target: T2, cysteines in MDA-MB-231 and Ramos cells (Homo sapiens, UniProt Q96S55); settings: 200 μM, insitu, 231
T2 sequence (Q96S55 1-665): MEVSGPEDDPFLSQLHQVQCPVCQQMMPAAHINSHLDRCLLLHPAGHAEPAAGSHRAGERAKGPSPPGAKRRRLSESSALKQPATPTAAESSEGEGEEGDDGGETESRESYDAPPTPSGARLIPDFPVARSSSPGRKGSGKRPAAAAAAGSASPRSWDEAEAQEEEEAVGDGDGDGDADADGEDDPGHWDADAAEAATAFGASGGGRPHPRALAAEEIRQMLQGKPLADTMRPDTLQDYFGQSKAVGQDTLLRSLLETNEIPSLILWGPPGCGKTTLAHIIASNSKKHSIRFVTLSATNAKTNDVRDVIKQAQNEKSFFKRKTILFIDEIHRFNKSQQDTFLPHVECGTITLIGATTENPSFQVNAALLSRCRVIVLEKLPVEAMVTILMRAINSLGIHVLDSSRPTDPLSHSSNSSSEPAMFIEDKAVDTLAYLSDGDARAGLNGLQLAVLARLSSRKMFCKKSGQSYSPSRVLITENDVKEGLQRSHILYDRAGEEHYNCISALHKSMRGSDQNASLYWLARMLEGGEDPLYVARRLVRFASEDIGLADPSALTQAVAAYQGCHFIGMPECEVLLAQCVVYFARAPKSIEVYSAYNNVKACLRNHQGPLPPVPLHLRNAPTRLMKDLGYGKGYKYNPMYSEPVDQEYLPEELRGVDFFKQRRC
Method: as §1

[4] = biological target: T3, cysteines in MDA-MB-231 and Ramos cells (Homo sapiens, UniProt Q9NQW6); settings: 200 μM, insitu, 231
T3 sequence (Q9NQW6 1-1124): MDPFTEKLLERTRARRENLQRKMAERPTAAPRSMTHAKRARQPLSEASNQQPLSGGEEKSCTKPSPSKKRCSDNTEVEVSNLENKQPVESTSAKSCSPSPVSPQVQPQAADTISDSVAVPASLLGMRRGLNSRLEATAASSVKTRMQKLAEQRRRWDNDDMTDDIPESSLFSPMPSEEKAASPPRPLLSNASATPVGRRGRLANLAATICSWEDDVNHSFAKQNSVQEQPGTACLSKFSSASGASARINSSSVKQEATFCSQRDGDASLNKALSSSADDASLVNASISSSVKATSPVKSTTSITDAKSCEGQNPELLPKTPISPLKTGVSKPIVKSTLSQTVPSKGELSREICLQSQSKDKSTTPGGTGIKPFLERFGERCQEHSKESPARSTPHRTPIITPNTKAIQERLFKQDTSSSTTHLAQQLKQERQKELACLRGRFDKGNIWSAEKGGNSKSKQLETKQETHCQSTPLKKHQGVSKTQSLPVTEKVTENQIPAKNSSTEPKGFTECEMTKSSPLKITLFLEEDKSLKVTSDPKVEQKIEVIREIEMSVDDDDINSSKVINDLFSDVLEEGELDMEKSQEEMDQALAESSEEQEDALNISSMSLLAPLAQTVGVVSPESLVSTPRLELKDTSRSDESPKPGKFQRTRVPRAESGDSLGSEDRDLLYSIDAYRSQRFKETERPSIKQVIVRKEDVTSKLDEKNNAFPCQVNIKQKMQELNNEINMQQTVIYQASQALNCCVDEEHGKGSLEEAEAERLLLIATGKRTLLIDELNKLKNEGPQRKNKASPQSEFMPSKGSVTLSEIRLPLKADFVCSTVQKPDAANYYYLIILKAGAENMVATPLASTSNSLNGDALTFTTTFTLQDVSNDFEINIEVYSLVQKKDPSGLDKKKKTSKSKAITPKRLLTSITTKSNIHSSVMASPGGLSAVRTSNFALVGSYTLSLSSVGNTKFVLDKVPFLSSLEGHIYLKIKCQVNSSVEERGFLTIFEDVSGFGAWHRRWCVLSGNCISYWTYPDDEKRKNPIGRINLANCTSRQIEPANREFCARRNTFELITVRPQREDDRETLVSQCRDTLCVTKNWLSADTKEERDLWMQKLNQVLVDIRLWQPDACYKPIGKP
Method: as §1

Chain of cysteines in MDA-MB-231 and Ramos cells (Homo sapiens, UniProt Q15365) (Q15365 whole entry): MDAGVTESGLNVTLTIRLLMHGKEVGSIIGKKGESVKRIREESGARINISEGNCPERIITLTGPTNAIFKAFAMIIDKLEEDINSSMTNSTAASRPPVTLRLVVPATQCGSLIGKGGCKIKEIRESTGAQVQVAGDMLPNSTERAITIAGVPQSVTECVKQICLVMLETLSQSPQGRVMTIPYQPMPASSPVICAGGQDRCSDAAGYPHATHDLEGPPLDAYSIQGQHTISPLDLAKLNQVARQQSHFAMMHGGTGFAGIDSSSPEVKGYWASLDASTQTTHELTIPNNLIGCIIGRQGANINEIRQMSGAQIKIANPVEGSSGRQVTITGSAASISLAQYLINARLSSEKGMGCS

Structure (SMILES)	isoTOP-ABPP ratio Q15365_C194 [1]; 231	isoTOP-ABPP ratio P42166_C341 [2]; 231	isoTOP-ABPP ratio P42166_C561 [2]; 231	isoTOP-ABPP ratio, cysteine P42166_C518 [2]; 231	isoTOP-ABPP ratio, cysteine P42166_C629 [2]; 231	isoTOP-ABPP ratio Q96S55_C272 [3]	isoTOP-ABPP ratio Q9NQW6_C712 [4]	isoTOP-ABPP ratio Q15365_C194 ([1]; ramos)	isoTOP-ABPP ratio P42166_C561 ([2]; ramos)	isoTOP-ABPP ratio P42166_C629 ([2]; ramos)	isoTOP-ABPP ratio P42166_C341 ([2]; ramos)	isoTOP-ABPP ratio P42166_C684 ([2]; ramos)	isoTOP-ABPP ratio P42166_C518 [2]; 231	isoTOP-ABPP ratio P42166_C684 [2]; 231
O=C(CCl)NC12CC3CC(CC(C3)C1)C2 [compound 21]	1.1	1.7	1.4	1.4	1.6	1.3	–	–	–	–	–	–	–	–
CC(C)CCOCCNC(=O)CCl [compound 27]	0.5	0.6	0.8	–	–	0.9	1.0	–	–	–	–	–	–	–
COc1ccccc1OCCNC(=O)CCl [compound 28]	–	–	1.1	–	–	0.5	0.9	–	–	–	–	–	–	–
O=C(CCl)N1CCN(CC(=O)N2CCOCC2)CC1 [compound 29]	–	–	–	–	–	–	–	1.0	0.9	1.6	–	–	–	–
C=CC(=O)N(Cc1cccnc1)c1cc(C(F)(F)F)cc(C(F)(F)F)c1 [compound 31]	0.7	–	1.3	–	–	–	0.7	1.6	2.5	–	2.0	3.3	–	–
C=CC(=O)Nc1cc(F)c(N2CCN(C(=O)OC(C)(C)C)CC2)c(F)c1 [compound 38]	15	–	20.0	–	–	1.3	1.5	–	–	–	–	–	2.2	3.0
Cc1ccc(C=C(C#N)C(=O)NCCN2CCOCC2)cc1 [compound 41]	0.3	0.5	0.7	–	–	0.8	0.7	–	–	–	–	–	–	–
CC1CCc2ccccc2N1C(=O)CCl (stereo not drawn) [compound 45]	1.5	–	20.0	–	–	2.5	5.9	–	–	–	–	–	–	6.8
O=C(CCl)Nc1cccc2ncccc12 [compound 51]	0.6	1.2	1.3	–	–	0.9	–	–	–	–	–	–	–	1.2
